Laboratory results published in US20230085307A1, “PYRIDAZINONE COMPOUND AND HERBICIDE” (NISSAN CHEMICAL CORPORATION, priority 2019, published 2023).

Tests used:
persian speedwell = assay: Test Example 5: herbicidal effect by foliage application, plastic box (Table 20, symbol R); assay type: in vivo, Persian speedwell (Veronica persica); details: foliage application
How it was run: (§1)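 Plants sown in sterilized diluvial soil and grown 14 days in a greenhouse at 25° C to 30° C, then sprayed on the foliage with the compound's emulsion diluted in water to a predetermined herbicide amount. Injury to weeds and crops scored three weeks after application on a visual rating scale.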

blackgrass = assay: Test Example 5: herbicidal effect by foliage application, plastic box (Table 20, symbol J); assay type: in vivo, blackgrass (Alopecurus myosuroides); details: foliage application
How it was run: as §1

green foxtail = assay: Test Example 5: herbicidal effect by foliage application, plastic box (Table 20, symbol G); assay type: in vivo, green foxtail (Setaria viridis); details: foliage application
How it was run: as §1

Chinese sprangletop = assay: Test Example 3: herbicidal effect by foliage application, Wagner pot (Table 18, symbol D); assay type: in vivo, chinese sprangletop (Leptochloa chinensis); details: 320 g/ha
How it was run: (§2)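 Plants were sown in alluvial soil held under 0.1–0.5 cm standing water and grown 14 days in a greenhouse at 25–30 °C. An emulsifiable formulation, water-diluted to the set dose, was then sprayed onto the foliage, and effects were scored three weeks later using previously defined criteria.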

southern crabgrass = assay: Test Example 5: herbicidal effect by foliage application, plastic box (Table 20, symbol F); assay type: in vivo, southern crabgrass (Digitaria ciliaris); details: foliage application
How it was run: as §1

chickweed = assay: Test Example 5: herbicidal effect by foliage application, plastic box (Table 20, symbol P); assay type: in vivo, common chickweed (Stellaria media); details: foliage application
How it was run: as §1

windgrass = assay: Test Example 5: herbicidal effect by foliage application, plastic box (Table 20, symbol L); assay type: in vivo, windgrass (Apera spica-venti); details: foliage application
How it was run: as §1

Italian ryegrass = assay: Test Example 5: herbicidal effect by foliage application, plastic box (Table 20, symbol K); assay type: in vivo, Italian ryegrass (Lolium multiflorum); details: foliage application
How it was run: as §1

barnyard grass [1] = assay: Test Example 3: herbicidal effect by foliage application, Wagner pot (Table 18, symbol H); assay type: in vivo, barnyard grass (Echinochloa crus-galli); details: 320 g/ha
How it was run: as §2

redroot pigweed = assay: Test Example 5: herbicidal effect by foliage application, plastic box (Table 20, symbol N); assay type: in vivo, redroot pigweed (Amaranthus retroflexus); details: foliage application
How it was run: as §1

false cleavers = assay: Test Example 5: herbicidal effect by foliage application, plastic box (Table 20, symbol Q); assay type: in vivo, false cleavers (Galium spurium); details: foliage application
How it was run: as §1

velvetleaf = assay: Test Example 5: herbicidal effect by foliage application, plastic box (Table 20, symbol M); assay type: in vivo, velvetleaf (Abutilon theophrasti); details: foliage application
How it was run: as §1

rice flat sedge = assay: Test Example 3: herbicidal effect by foliage application, Wagner pot (Table 18, symbol E); assay type: in vivo, rice flat sedge (Cyperus iria); details: 320 g/ha
How it was run: as §2

barnyard grass [2] = assay: Test Example 5: herbicidal effect by foliage application, plastic box (Table 20, symbol H); assay type: in vivo, barnyard grass (Echinochloa crus-galli); details: foliage application
How it was run: as §1

lambsquarters = assay: Test Example 5: herbicidal effect by foliage application, plastic box (Table 20, symbol O); assay type: in vivo, lambsquarters (Chenopodium album); details: foliage application
How it was run: as §1

wild oat = assay: Test Example 5: herbicidal effect by foliage application, plastic box (Table 20, symbol I); assay type: in vivo, wild oat (Avena fatua); details: foliage application
How it was run: as §1

[3] = 320 g/ha, three weeks after application
[4] = AAH 80 g/ha, three weeks after application
[5] = 320 g/ha, evaluated three weeks after application

Structure (SMILES) | herbicidal effect grade, R: persian speedwell (persian speedwell; [3]) | herbicidal effect grade, J: blackgrass (blackgrass; [3]) | herbicidal effect grade, G: green foxtail (green foxtail; [3]) | herbicidal effect on D (Chinese sprangletop), rating 0-5 (Chinese sprangletop) | herbicidal effect grade, F: southern crabgrass (southern crabgrass; [3]) | herbicidal effect grade, P: chickweed (chickweed; [3]) | herbicidal effect grade, K: Italian ryegrass (Italian ryegrass; [3]) | herbicidal effect on H (barnyard grass), rating 0-5 (barnyard grass [1]) | herbicidal effect grade, N: redroot pigweed (redroot pigweed; [3]) | herbicidal effect grade, Q: false cleavers (false cleavers; [3]) | herbicidal effect grade, M: velvetleaf (velvetleaf; [3]) | herbicidal effect on E (rice flat sedge), rating 0-5 (rice flat sedge) | herbicidal effect grade, H: barnyard grass (barnyard grass [2]; [3]) | herbicidal effect grade, O: lambsquarters (lambsquarters; [3]) | herbicidal effect grade, I: wild oat (wild oat; [3]) | further results
Cc1nn(C)c(=O)c(-c2c(-c3ccccc3O)sc3ccccc23)c1O [1-009] | 4 (Herbicidal rate of 70% or more and less than 90%) | 0 (Herbicidal rate of 5% or less (almost no effect)) | 3 (Herbicidal rate of 40% or more and less than 70%) | 2 (Herbicidal rate of 20% or more and less than 40%) | 3 (Herbicidal rate of 40% or more and less than 70%) | 4 (Herbicidal rate of 70% or more and less than 90%) | 0 (Herbicidal rate of 5% or less (almost no effect)) | 3 (Herbicidal rate of 40% or more and less than 70%) | 0 (Herbicidal rate of 5% or less (almost no effect)) | 0 (Herbicidal rate of 5% or less (almost no effect)) | 0 (Herbicidal rate of 5% or less (almost no effect)) | 2 (Herbicidal rate of 20% or more and less than 40%) | 2 (Herbicidal rate of 20% or more and less than 40%) | 0 (Herbicidal rate of 5% or less (almost no effect)) | 0 (Herbicidal rate of 5% or less (almost no effect)) | herbicidal effect grade, L: windgrass (windgrass; [3]): 0 (Herbicidal rate of 5% or less (almost no effect))
CSc1cc(F)ccc1-c1sc2ccccc2c1-c1c(O)c(C)nn(C)c1=O [1-063] | 4 (Herbicidal rate of 70% or more and less than 90%) | 3 (Herbicidal rate of 40% or more and less than 70%) | 0 (Herbicidal rate of 5% or less (almost no effect)) | 0 (Herbicidal rate of 5% or less (almost no effect)) | 0 (Herbicidal rate of 5% or less (almost no effect)) | 5 (Herbicidal rate of 90% or more (almost completely withered)) | 1 (Herbicidal rate of 5% or more and less than 20%) | 2 (Herbicidal rate of 20% or more and less than 40%) | 0 (Herbicidal rate of 5% or less (almost no effect)) | 2 (Herbicidal rate of 20% or more and less than 40%) | 0 (Herbicidal rate of 5% or less (almost no effect)) | 3 (Herbicidal rate of 40% or more and less than 70%) | 0 (Herbicidal rate of 5% or less (almost no effect)) | 3 (Herbicidal rate of 40% or more and less than 70%) | 2 (Herbicidal rate of 20% or more and less than 40%) | –
CCCC(=O)Oc1c(OC)nn(C)c(=O)c1-c1c(-c2ccc(-c3ccccc3)cc2)sc2ccccc12 [1-167] | – | – | – | – | – | – | – | – | – | – | – | – | – | – | – | R: persian speedwell, herbicidal effect (persian speedwell; [4]): 3 (Herbicidal rate of 40% or more and less than 70%); J: blackgrass, herbicidal effect (blackgrass; [4]): 0 (Herbicidal rate of 5% or less (almost no effect)); G: green foxtail, herbicidal effect (green foxtail; [4]): 0 (Herbicidal rate of 5% or less (almost no effect)); F: southern crabgrass, herbicidal effect (southern crabgrass; [4]): 0 (Herbicidal rate of 5% or less (almost no effect)); P: chickweed, herbicidal effect (chickweed; [4]): 1 (Herbicidal rate of 5% or more and less than 20%); L: windgrass, herbicidal effect (windgrass; [4]): 0 (Herbicidal rate of 5% or less (almost no effect)); K: Italian ryegrass, herbicidal effect (Italian ryegrass; [4]): 0 (Herbicidal rate of 5% or less (almost no effect)); N: redroot pigweed, herbicidal effect (redroot pigweed; [4]): 3 (Herbicidal rate of 40% or more and less than 70%); Q: false cleavers, herbicidal effect (false cleavers; [4]): 3 (Herbicidal rate of 40% or more and less than 70%); M: velvetleaf, herbicidal effect (velvetleaf; [4]): 0 (Herbicidal rate of 5% or less (almost no effect)); H: barnyard grass, herbicidal effect (barnyard grass [2]; [4]): 0 (Herbicidal rate of 5% or less (almost no effect)); O: lambsquarters, herbicidal effect (lambsquarters; [4]): 2 (Herbicidal rate of 20% or more and less than 40%); I: wild oat, herbicidal effect (wild oat; [4]): 0 (Herbicidal rate of 5% or less (almost no effect))
CCCC(=O)Oc1c(C)nn(C)c(=O)c1-c1c(-c2ccc(OC)c(C)c2)sc2ccc(Cl)cc12 [2-120] | – | – | – | – | – | – | – | – | – | – | – | – | – | – | – | herbicidal effect on R: persian speedwell (persian speedwell; [5]): 5 (Herbicidal rate of 90% or more (almost completely withered)); herbicidal effect on J: blackgrass (blackgrass; [5]): 0 (Herbicidal rate of 5% or less (almost no effect)); herbicidal effect on G: green foxtail (green foxtail; [5]): 0 (Herbicidal rate of 5% or less (almost no effect)); herbicidal effect on F: southern crabgrass (southern crabgrass; [5]): 0 (Herbicidal rate of 5% or less (almost no effect)); herbicidal effect on P: chickweed (chickweed; [5]): 5 (Herbicidal rate of 90% or more (almost completely withered)); herbicidal effect on L: windgrass (windgrass; [5]): 0 (Herbicidal rate of 5% or less (almost no effect)); herbicidal effect on K: Italian ryegrass (Italian ryegrass; [5]): 0 (Herbicidal rate of 5% or less (almost no effect)); herbicidal effect on N: redroot pigweed (redroot pigweed; [5]): 0 (Herbicidal rate of 5% or less (almost no effect)); herbicidal effect on Q: false cleavers (false cleavers; [5]): 4 (Herbicidal rate of 70% or more and less than 90%); herbicidal effect on M: velvetleaf (velvetleaf; [5]): 0 (Herbicidal rate of 5% or less (almost no effect)); herbicidal effect on H: barnyard grass (barnyard grass [2]; [5]): 0 (Herbicidal rate of 5% or less (almost no effect)); herbicidal effect on O: lambsquarters (lambsquarters; [5]): 0 (Herbicidal rate of 5% or less (almost no effect)); herbicidal effect on I: wild oat (wild oat; [5]): 0 (Herbicidal rate of 5% or less (almost no effect))
